Measured values: the NIST ThermoML archive (doi:10.1021/acs.jced.5b00246)
Several values for one entry are separate records, joined by “and”; a condition that tells them apart may be missing. Equal values may be shown once.

Settings: 101.33 kPa, Liquid, NMR spin-echo technique

C1COCCO1 [1,4-dioxane]
Settings | self diffusion coefficient [m2/s]
288.31 K | 9.1e-10
288.33 K | 8.97e-10
293.11 K | 1.03e-09
298.13 K | 1.1e-09
298.17 K | 1.12e-09
298.18 K | 1.09e-09
298.2 K | 1.13e-09
303.12 K | 1.24e-09
307.92 K | 1.3e-09
308.06 K | 1.32e-09
317.85 K | 1.55e-09
318.24 K | 1.57e-09
327.94 K | 1.79e-09
327.95 K | 1.81e-09
338.09 K | 2.15e-09
338.12 K | 2.09e-09
338.13 K | 2.11e-09
347.87 K | 2.37e-09
347.97 K | 2.43e-09
358.25 K | 2.66e-09
358.49 K | 2.66e-09

C[S+](C)[O-] [dimethyl sulfoxide]
Settings | self diffusion coefficient [m2/s]
293.09 K | 6.55e-10
298.26 K | 7.46e-10
298.29 K | 7.45e-10
308.1 K | 9.1e-10
318.03 K | 1.12e-09
328.1 K | 1.34e-09
338.12 K | 1.59e-09
348.17 K | 1.84e-09
363.71 K | 2.29e-09

CCCCCCCCCCCC [dodecane]
Settings | self diffusion coefficient [m2/s]
264.14 K | 3.95e-10
266.5 K | 4.2e-10
268.03 K | 4.37e-10
278.2 K | 5.59e-10
278.52 K | 5.63e-10
278.56 K | 5.64e-10
278.72 K | 5.66e-10
288.09 K | 6.97e-10
288.49 K | 7.03e-10
288.52 K | 7.03e-10
298.15 K | 8.56e-10
298.2 K | 8.57e-10
298.21 K | 8.57e-10
308.15 K | 1.03e-09
308.16 K | 1.04e-09
318.15 K | 1.22e-09
318.16 K | 1.23e-09
323.17 K | 1.33e-09
328.17 K | 1.43e-09
328.22 K | 1.44e-09
328.25 K | 1.47e-09
333.14 K | 1.54e-09
337.93 K | 1.67e-09
337.97 K | 1.66e-09
337.99 K | 1.67e-09
348.08 K | 1.92e-09
352.75 K | 2.07e-09
352.77 K | 2.04e-09
364.53 K | 2.44e-09
364.54 K | 2.41e-09

C1CCCCC1 [cyclohexane]
Settings | self diffusion coefficient [m2/s]
283.47 K | 1.07e-09
283.53 K | 1.09e-09
288.31 K | 1.19e-09
288.32 K | 1.2e-09
298.12 K | 1.46e-09
298.15 K | 1.47e-09
308.02 K | 1.73e-09
308.03 K | 1.76e-09
308.16 K | 1.71e-09
308.17 K | 1.72e-09
317.68 K | 2.03e-09
317.73 K | 2.08e-09
318.22 K | 2.05e-09
318.25 K | 2.05e-09
323.04 K | 2.23e-09
328.13 K | 2.47e-09
328.15 K | 2.47e-09
333.02 K | 2.6e-09
333.05 K | 2.65e-09
342.79 K | 2.97e-09
348.16 K | 3.25e-09

CCCCC(CC)COC(=O)c1ccccc1C(=O)OCC(CC)CCCC (stereo not given) [bis(2-ethylhexyl) 1,2-benzenedicarboxylate]
Settings | self diffusion coefficient [m2/s]
268 K | 1.31e-12
273 K | 2.05e-12
283 K | 4.57e-12
298.1 K | 1.24e-11
303.18 K | 1.71e-11
303.2 K | 1.86e-11
312.89 K | 2.91e-11
313.2 K | 3.05e-11
322.7 K | 4.5e-11
322.84 K | 4.53e-11
322.88 K | 4.53e-11
323.03 K | 4.57e-11
323.05 K | 4.57e-11
323.1 K | 4.73e-11
332.7 K | 6.93e-11
333.16 K | 6.74e-11
333.2 K | 6.78e-11
342.5 K | 9.48e-11
343.65 K | 9.74e-11
343.7 K | 9.79e-11
352.86 K | 1.3e-10
352.88 K | 1.31e-10
362.72 K | 1.69e-10
362.75 K | 1.72e-10

CC(C)CCCC(C)CCCC(C)CCCCC(C)CCCC(C)CCCC(C)C (stereo not given) [2,6,10,15,19,23-hexamethyltetracosane]
Settings | self diffusion coefficient [m2/s]
270.4 K | 5.32e-12
273 K | 6.72e-12
283.3 K | 1.34e-11
283.6 K | 1.32e-11
288.28 K | 1.81e-11
293.13 K | 2.19e-11
293.19 K | 2.26e-11
298 K | 2.79e-11
298.19 K | 2.88e-11
298.44 K | 2.91e-11
303 K | 3.57e-11
303.18 K | 3.69e-11
312.99 K | 5.7e-11
314.3 K | 5.7e-11
322.69 K | 8.15e-11
322.72 K | 8.24e-11
323.16 K | 8.12e-11
325.7 K | 8.83e-11
333.03 K | 1.17e-10
333.49 K | 1.14e-10
334.8 K | 1.18e-10
342.81 K | 1.5e-10
344.9 K | 1.6e-10
348.2 K | 1.74e-10
352.82 K | 1.96e-10
353.15 K | 1.98e-10
362.6 K | 2.44e-10
362.82 K | 2.5e-10
362.88 K | 2.6e-10

Cc1ccccc1 [toluene]
Settings | self diffusion coefficient
239.09 K | 7.12e-10 m2/s
240.94 K | 7.53e-10 m2/s
248.57 K | 8.98e-10 m2/s
251.71 K | 9.77e-10 m2/s
253.27 K | 1.01e-09 m2/s
253.28 K | 1.01e-09 m2/s
258.16 K | 1.13e-09 m2/s
258.23 K | 1.13e-09 m2/s
263.51 K | 1.24e-09 m2/s
268.32 K | 1.38e-09 m2/s
273.43 K | 1.5e-09 m2/s
273.54 K | 1.52e-09 m2/s
278.07 K | 1.67e-09 m2/s
278.15 K | 1.67e-09 m2/s
288.05 K | 1.98e-09 m2/s
293.08 K | 2.13e-09 m2/s
298 K | 2.3e-09 m2/s
298.18 K | 2.27e-09 m2/s
298.2 K | 2.32e-09 m2/s
298.21 K | 2.28e-09 m2/s and 2.3e-09 m2/s
308.07 K | 2.71e-09 m2/s
322.69 K | 3.15e-09 m2/s
323.16 K | 3.32e-09 m2/s
323.18 K | 3.3e-09 m2/s
332.93 K | 3.56e-09 m2/s
333.16 K | 3.56e-09 m2/s
343.45 K | 4.09e-09 m2/s

CCCCCO [pentan-1-ol]
Settings | self diffusion coefficient
253.13 K | 5.27e-11 m2/s
253.19 K | 5.32e-11 m2/s
258.42 K | 6.61e-11 m2/s
258.47 K | 6.61e-11 m2/s
263.25 K | 8.06e-11 m2/s
263.28 K | 8.11e-11 m2/s
268.65 K | 1.01e-10 m2/s
268.66 K | 1.02e-10 m2/s
278.4 K | 1.51e-10 m2/s
278.43 K | 1.52e-10 m2/s
288.31 K | 2.17e-10 m2/s
288.33 K | 2.17e-10 m2/s
298.16 K | 3.01e-10 m2/s
298.17 K | 3e-10 m2/s
298.19 K | 2.99e-10 m2/s
298.21 K | 3.02e-10 m2/s
298.27 K | 3.02e-10 m2/s
308.09 K | 4.13e-10 m2/s
308.11 K | 4.14e-10 m2/s
318.08 K | 5.54e-10 m2/s
318.09 K | 5.56e-10 m2/s
323.1 K | 6.39e-10 m2/s
323.15 K | 6.43e-10 m2/s
327.86 K | 7.3e-10 m2/s and 7.36e-10 m2/s
337.71 K | 9.56e-10 m2/s
337.74 K | 9.49e-10 m2/s
347.21 K | 1.22e-09 m2/s
347.25 K | 1.22e-09 m2/s
352.35 K | 1.4e-09 m2/s
352.36 K | 1.4e-09 m2/s
352.55 K | 1.41e-09 m2/s
364.52 K | 1.84e-09 m2/s
364.59 K | 1.83e-09 m2/s
364.73 K | 1.83e-09 m2/s
